What was measured:
nvpLGIC‐1 – nvpLGIC‐7 = test: Ligand screen by two-electrode voltage clamp, nvpLGIC‐1 – nvpLGIC‐7 expressed individually in Xenopus oocytes; type: cell-based, Nematostella vectensis; settings: for evoked currents: 1 µM–1 mM
Description: Approximately 2–5 ng of cRNA of nvpLGICs were injected into Xenopus laevis oocytes of stages V and VI. Injected oocytes were incubated at 19 °C in oocyte Ringer's solution (OR‐2) containing (in mM): 82.5 NaCl, 2.5 KCl, 1.0 Na2HPO4,1.0 MgCl2, 1.0 CaCl2, 5.0 HEPES, 0.5 g l^−1 PVP, 1000 U l^−1 penicillin, and 10 mg l^−1 streptomycin. pH was adjusted to 7.3 using NaOH.
(§1) For electrophysiology, whole‐oocyte currents were measured two days after injection using a two‐electrode voltage clamp (TEVC) set‐up with a TurboTec 03X amplifier (npi electronic GmbH, Tamm, Germany) and a pump‐driven solution exchange system combined with the oocyte testing carousel (OTC), controlled by the interface OTC‐20. For nvGluCl‐1, the His‐tagged version was functionally characterized. Standard bath solution contained (in mM): 140 NaCl, 10 HEPES, 1.8 CaCl2, and 1.0 MgCl2, pH was adjusted to 7.4 using NaOH. Solution exchange was controlled using the CellWorks 5.1.1 software (npi electronic). Data were sampled at 0.1–1 kHz and filtered at 20 Hz. Holding potential was −70 mV.

nvGluCl‐2 K229 mutants = test: Two-electrode voltage clamp of oocytes expressing nvGluCl‐2 with substitutions of K229 (K229T, K229R, K229M); type: cell-based, Nematostella vectensis
From the text: Full‐length DNA sequences of […] subunits were identified and cloned based on bulk and single cell transcriptomes of N. vectensis. nvpLGIC‐1 – nvpLGIC‐4 were cloned in oocyte expression vector pRSSP6009 [72]. nvpLGIC‐5 and […] DNA sequences were synthesized and cloned in the pCDNA3.1 (‐) vector (BioCat GmbH). They were then subcloned in the vector pRSSP6009 (nvpLGIC‐6) or pRSSP 6013 (nvpLGIC‐5). Site‐directed mutations were introduced in nvGluCl‐2 to create the mutants at position K229, using the Quick‐change mutagenesis method. nvpLGIC‐1 – nvpLGIC‐6 subunits were fused with His6‐tags at their C‐terminus using PCR. His6‐tags were incorporated just before the stop codon without changing any other amino acids. All final constructs were sequenced for confirmation. […]
For electrophysiology, whole‐oocyte currents were measured two days after injection using a two‐electrode voltage clamp (TEVC) set‐up with a TurboTec 03X amplifier (npi electronic GmbH, Tamm, Germany) and a pump‐driven solution exchange system combined with the oocyte testing carousel (OTC), controlled by the interface OTC‐20. […]

nematocytes = system: nematocytes; design: method as in PMID 32452384; settings: cited from earlier work
nvGluCl‐1 (nvpLGIC‐1) = test: Two-electrode voltage clamp of Xenopus oocytes expressing nvGluCl‐1 (nvpLGIC‐1); type: cell-based, Nematostella vectensis
Description: (§2) Approximately 2–5 ng of cRNA of nvpLGICs were injected into Xenopus laevis oocytes of stages V and VI.
as §1, with “For nvGluCl‐1, the His‐tagged version was functionally characterized.” left out
(§3) Electrophysiological data were analyzed offline, and current amplitudes were assessed using CellWorks Reader 6.2.2 (npi electronic GmbH, Tamm, Germany). Concentration‐response relationships were normalized to the currents obtained with a saturating concentration (I/Imax ). The mean of normalized amplitudes was plotted as a function of ligand concentrations.
(§4) Desensitization kinetics and recovery from desensitization were fitted to a mono‐exponential function: (2) y=yo+Ae^−x/τ where yo is the offset, A is the amplitude, and τ is the time constant.

nvGluCl‐2 (nvpLGIC‐2) = test: Two-electrode voltage clamp of Xenopus oocytes expressing nvGluCl‐2 (nvpLGIC‐2); type: cell-based, Nematostella vectensis
Description: as §2
as §1, with “For nvGluCl‐1, the His‐tagged version was functionally characterized.” left out
as §3, §4

nvGluCl‐3 (nvpLGIC‐6) = test: Two-electrode voltage clamp of Xenopus oocytes expressing nvGluCl‐3 (nvpLGIC‐6); type: cell-based, Nematostella vectensis
Description: as §2
as §1, with “For nvGluCl‐1, the His‐tagged version was functionally characterized.” left out
as §3, §4

[1] = molecular target: nvpLGIC-1 (Nematostella vectensis pentameric ligand-gated ion channel subunit 1), C-terminal His6 (Nematostella vectensis); test: native gel or EMSA; blue native PAGE of C-terminally His-tagged receptors expressed in Xenopus laevis oocytes, solubilised with digitonin and purified under non-denaturing conditions on Ni-NTA; run native and partially denatured (SDS 1 h at 37°C; methods say LiDS) to count lower-order intermediates; surface pool detected by IR800 fluorescence, total pool by 35S phosphorimaging
[2] = molecular target: nvpLGIC-3 (Nematostella vectensis pentameric ligand-gated ion channel subunit 3), C-terminal His6 (Nematostella vectensis); test: as above
[3] = molecular target: nvpLGIC-5 (Nematostella vectensis pentameric ligand-gated ion channel subunit 5), C-terminal His6 (Nematostella vectensis); test: as above
[4] = molecular target: the molecule itself; test: as above
[5] = also with a mix of nvpLGIC‐1 – nvpLGIC‐7, nvpLGIC‐7 not tested individually
[6] = at 500 µM glutamate, single exponential fit
[7] = read-out: EC50, half‐maximal activation, TEVC, holding potential −70 mV

For `N[C@H](CO)C(=O)O` [D‐serine], the elicited currents (nvpLGIC‐1 – nvpLGIC‐7; 1 mM) was “did not elicit currents”.

In the case of `NCCCC(=O)O` [GABA, γ‐aminobutyric acid], the evoked currents (nvpLGIC‐1 – nvpLGIC‐7) is given as “neither GABA nor glycine (1 µM–1 mM) evoked currents”, the “activation of K229 mutant channels” value (nvGluCl‐2 K229 mutants) is given as “still not activated” and the elicited currents (nematocytes) is given as “neither Glu nor GABA elicit currents”.

For `CC(=O)OCC[N+](C)(C)C` [acetylcholine], the elicited currents (nvpLGIC‐1 – nvpLGIC‐7; 1 mM) is given as “did not elicit currents” and the elicited currents (nematocytes) is given as “elicits an inward Ca^2+ current”.

In the case of `N[C@@H](CC(=O)O)C(=O)O` [aspartate], the elicited currents (nvpLGIC‐1 – nvpLGIC‐7; [5]) is reported as “did not elicit currents”.

With `N[C@@H](CCC(=O)O)C(=O)O` [glutamate] the evoked currents (nvGluCl‐1 (nvpLGIC‐1); 100 µM) was “evoked large currents”, the “time constant of desensitization, τdes” value (nvGluCl‐1 (nvpLGIC‐1); [6]) was 26 ± 3 ms and the EC50 (nvGluCl‐1 (nvpLGIC‐1); read-out: EC50, half‐maximal activation, TEVC, holding potential −70 mV, His‐tagged version) was 16 µM. For the same molecule, the evoked currents (nvGluCl‐2 (nvpLGIC‐2); 100 µM) was “evoked large currents”, the “recovery from desensitization, τrecovery” value (nvGluCl‐2 (nvpLGIC‐2); 30 s desensitizing pulse of 100 µM glutamate) was 31 s and the “time constant of desensitization, τdes” value (nvGluCl‐2 (nvpLGIC‐2); [6]) was 111 ± 47 ms. For the same molecule, the EC50 (nvGluCl‐2 (nvpLGIC‐2); [7]) was 102 µM, the evoked currents (nvGluCl‐3 (nvpLGIC‐6); 100 µM) was “evoked large currents” and the “time constant of desensitization, τdes” value (nvGluCl‐3 (nvpLGIC‐6); [6]) was 161 ± 93 ms. The “recovery from desensitization, τrecovery” value (nvGluCl‐3 (nvpLGIC‐6); desensitization by 30 µM glutamate for 30 s) was 38 s, the EC50 (nvGluCl‐3 (nvpLGIC‐6); [7]) was 7 µM and the “response to glutamate of K229T, K229R, K229M mutants” value (nvGluCl‐2 K229 mutants; 10 mM glutamate) was “almost completely abolished the response”. For the same molecule, the elicited currents (nematocytes) was “neither Glu nor GABA elicit currents”.

With `NC(=O)CC[C@H](N)C(=O)O` [glutamine] the elicited currents (nvpLGIC‐1 – nvpLGIC‐7; [5]) was “did not elicit currents”.

With `NCC(=O)O` [glycine] the evoked currents (nvpLGIC‐1 – nvpLGIC‐7) was “neither GABA nor glycine (1 µM–1 mM) evoked currents”.

In the case of `NCCc1c[nH]cn1` [histamine], the elicited currents (nvpLGIC‐1 – nvpLGIC‐7; [5]) is reported as “did not elicit currents”.

For `NCCc1c[nH]c2ccc(O)cc12` [serotonin], the elicited currents (nvpLGIC‐1 – nvpLGIC‐7; 1 mM) was “did not elicit currents”.

In the case of `NCCC(=O)O` [β‐alanine], the elicited currents (nvpLGIC‐1 – nvpLGIC‐7; [5]) is reported as “did not elicit currents”.

For “nvpLGIC-1 (Nematostella vectensis pentameric ligand-gated ion channel subunit 1), C-terminal His6 (receptor)”, the stoichiometry N [1] was 5.

“nvpLGIC-3 (Nematostella vectensis pentameric ligand-gated ion channel subunit 3), C-terminal His6 (receptor)” gave a stoichiometry N [2] of 5.

Molecule “nvpLGIC-5 (Nematostella vectensis pentameric ligand-gated ion channel subunit 5), C-terminal His6 (receptor)” has a stoichiometry N [3] of 5.

In the case of picrotoxin [PTx], the IC50 (nvGluCl‐2 (nvpLGIC‐2); 100 µM glutamate, read-out: apparent IC50, inhibition of glutamate-evoked current) is reported as roughly 10 µM.

B1: human GABAA receptor β3 subunit (hGABRB3), His-tagged (receptor, UniProt P28472 26-473, looked up)
chain: QSVNDPGNMSFVKETVDKLLKGYDIRLRPDFGGPPVCVGMNIDIASIDMVSEVNMDYTLTMYFQQYWRDKRLAYSGIPLNLTLDNRVADQLWVPDTYFLNDKKSFVHGVTVKNRMIRLHPDGTVLYGLRITTTAACMMDLRRYPLDEQNCTLEIESYGYTTDDIEFYWRGGDKAVTGVERIELPQFSIVEHRLVSRNVVFATGAYPRLSLSFRLKRNIGYFILQTYMPSILITILSWVSFWINYDASAARVALGITTVLTMTTINTHLRETLPKIPYVKAIDMYLMGCFVFVFLALLEYAFVNYIFFGRGPQRQKKLAEKTAKAKNDRSKSESNRVDAHGNILLTSLEVHNEMNEVSGGIGDTRNSAISFDNSGIQYRKQSMPREGHGRFLGDRSLPHKKTHLRRRSSQLKIKIPDLTDVNAIDRWSRIVFPFTFSLFNLVYWLYYVN
modifications: metabolically labelled with [35S]methionine; surface pool labelled with the lysine-reactive dye IR800-NHS ester
notes: human GABAA receptor subunit β3 (GABRB3), full-length cDNA from the Harvard Plasmid Repository, subcloned into a Gateway-compatible pNKS2 vector; Positive control for homopentamer formation; also called human GABAA β3; human β3 receptor; source: Xenopus laevis oocytes, cRNA-injected; digitonin-solubilised, purified (Ni-NTA); not shown: His tag, C-terminal, kept
With B1 the “stoichiometry N” value [4] was 5.

From publication PMC13335744, “Functional Analysis of Ligand‐Gated Chloride Channels in a Cnidarian Sheds Light on the Evolution of Inhibitory Signaling” (Advanced Science, 2026)
